SMILES strings stand for the structures.

Assay [1] relates to SAg: Venular endothelial cells, peripheral blood mononuclear cells (TCR ligands). In words: BioMAP SAg system. In kind it is cell-based, human. The settings on record: SAg system; at the compound's active concentration. As to the method:
(§1) Anti-inflammatory phenotypic profiling was conducted across 12 human primary cell-based systems as part of DiscoverX's BioMAP Diversity Plus program. These systems are designed to model complex human tissue and disease biology of the vasculature, skin, lung, and inflammatory tissues. Quantitative measurements of biomarker activities across this broad panel were used to assess each biochemical's anti-inflammatory activity at four concentrations ([…] and 2.2, 6.7 and 20 μM). […] Protein-based biomarkers from activated cell systems were measured and compared with controls. Biomarker activities were annotated when 2 or more consecutive concentrations change in the same directions relative to vehicle controls, were outside of the significance envelope and had at least one concentration with an effect size>20% (log 10 ratio)>0.1.
In this system, human primary peripheral blood mononuclear cells and human umbilical vein endothelial cells were stimulated with T-cell receptor ligands and incubated with the test agent, drug control, or vehicle control for 24 hours. A negative, non-stimulated system was also included. […] This antiproliferative activity was lost at higher concentrations (20 μM). In this system, T cell proliferation is considered a critical event driving an inflammatory response.
The Diversity PLUS panel allows test agent characterization in an unbiased way across a broad set of systems modeling various human disease states. These systems are designed to model complex human tissue and disease biology of the vasculature, skin, lung, and inflammatory tissues. Quantitative measurements of 148 biomarker activities across this broad panel, along with comparative analysis of biological activities from known bioactive agents, were used to predict and compare the efficacy and function of each selected compound at selected concentrations (6.7 and/or 20 μM). […]
(§2) Each test agent generates a signature BioMAP profile that is created from the changes in protein biomarker readouts within individual system environments. Biomarker readouts (7-17 per system) are selected for therapeutic and biological relevance, are predictive for disease outcomes or specific drug effects and are validated using agents with known mechanism of action (MoA). Each readout is measured quantitatively by immune-based methods that detect protein (e.g., ELISA) or functional assays that measure proliferation and viability. BioMAP readouts are diverse and include cell surface receptors, cytokines, chemokines, matrix molecules and enzymes. In total, the Diversity PLUS panel contains 148 biomarker readouts that capture biological changes that occur within the physiological context of the particular BioMAP system. […]

Assay [2] relates to human primary cell-based systems. Description: BioMAP Diversity PLUS panel, phenotypic profiling. The settings on record: tested at 6.7 and/or 20 μM; 24 to 72 hours. As to the method: Anti-inflammatory phenotypic profiling was conducted across 12 human primary cell-based systems as part of DiscoverX's BioMAP Diversity Plus program. These systems are designed to model complex human tissue and disease biology of the vasculature, skin, lung, and inflammatory tissues. Quantitative measurements of biomarker activities across this broad panel were used to assess each biochemical's anti-inflammatory activity at four concentrations ([…] and 2.2, 6.7 and 20 μM). […] Protein-based biomarkers from activated cell systems were measured and compared with controls.
(§3) The Diversity PLUS panel allows test agent characterization in an unbiased way across a broad set of systems modeling various human disease states. These systems are designed to model complex human tissue and disease biology of the vasculature, skin, lung, and inflammatory tissues. Quantitative measurements of 148 biomarker activities across this broad panel, along with comparative analysis of biological activities from known bioactive agents, were used to predict and compare the efficacy and function of each selected compound at selected concentrations (6.7 and/or 20 μM).
(§4) BioMAP systems are constructed with one or more primary cell types from healthy human donors, with stimuli (such as cytokines or growth factors) added to capture relevant signaling networks that naturally occur in human tissue or pathological conditions. Vascular biology is modeled in both a Th1 (3C system) and a Th2 (4H system) inflammatory environment, as well as in a Th1 inflammatory state specific to arterial smooth muscle cells (CASM3C system). Additional systems recapitulate aspects of the systemic immune response including monocyte-driven Th1 inflammation (LPS system) or T cell stimulation (SAg system), chronic Th1 inflammation driven by macrophage activation (lMphg system) and the T cell-dependent activation of B cells that occurs in germinal centers (BT system). The BE3C system (Th1) and the BF4T system (Th2) represent airway inflammation of the lung, while the MyoF system models myofibroblast-lung tissue remodeling. Lastly, skin biology is addressed in the KF3CT system modeling Th1 cutaneous inflammation and the HDF3CGF system modeling wound healing.
(§5) Each test agent generates a signature BioMAP profile that is created from the changes in protein biomarker readouts within individual system environments. Biomarker readouts (7-17 per system) are selected for therapeutic and biological relevance, are predictive for disease outcomes or specific drug effects and are validated using agents with known mechanism of action (MoA). Each readout is measured quantitatively by immune-based methods that detect protein (e.g., ELISA) or functional assays that measure proliferation and viability. BioMAP readouts are diverse and include cell surface receptors, cytokines, chemokines, matrix molecules and enzymes. In total, the Diversity PLUS panel contains 148 biomarker readouts that capture biological changes that occur within the physiological context of the particular BioMAP system.
(§6) Activated BioMAP systems were incubated with each compound for 24 to 72 hours. Protein-based biomarkers from activated cell systems were measured and compared with non-treated control systems.

The test system of assay [3] is BT: Peripheral blood mononuclear cells, B cells (α-IgM, TCR ligands). Description: BioMAP BT system. In kind it is cell-based, human. As to the method:
as §1
(§7) In the first system, human primary peripheral blood mononuclear cells and venular endothelial cells were stimulated with lipopolysaccharide (LPS) and incubated with the test agent, drug control, or vehicle control for 24 hours. In the second system, peripheral blood mononuclear cells and B cells were stimulated with α-IgM and T cell receptor ligands and incubated with the test agent, drug control, or vehicle control for 24 hours. In both systems, a negative, non-stimulated system was also included.
as §3, §4, §2

In assay [4] the test system is HDF3CGF: Dermal fibroblasts. In words: BioMAP HDF3CGF system. In kind it is cell-based, human. The settings on record: at the compound's active concentration.
Text: as §3, §4
as §5, with “system. Specific BioMAP activities have been correlated to in vivo biology, and multiparameter BioMAP profiles have been used to distinguish compounds based on MoA and target selectivity across diverse physiological systems.” for “system.”
as §6

The test system of assay [5] is 4H: Venular endothelial cells (IL-4, histamine). Description: BioMAP 4H system. In kind it is cell-based, human. The settings on record: at the compound's active concentration.
Text: as §3
BioMAP systems are constructed with one or more primary cell types from healthy human donors, with stimuli (such as cytokines or growth factors) added to capture relevant signaling networks that naturally occur in human tissue or pathological conditions. Vascular biology is modeled in both a Th1 (3C system) and a Th2 (4H system) inflammatory environment, as well as in a Th1 inflammatory state specific to arterial smooth muscle cells (CASM3C system). […]
as §2, §6

Assay [6] relates to LPS: Venular endothelial cells, peripheral blood mononuclear cells (TLR4 ligand). Description: BioMAP LPS system. In kind it is cell-based, human. As to the method:
as §1, §7, §3, §4, §2

Assay [7] has as its system CASM3C: Coronary artery smooth muscle cells (IL-1β, TNFα, IFNγ). Description: BioMAP CASM3C system. The class given is cell-based, human. The note with it: at the compound's active concentration.
Text: (§8) The Diversity PLUS panel allows test agent characterization in an unbiased way across a broad set of systems modeling various human disease states. These systems are designed to model complex human tissue and disease biology of the vasculature, skin, lung, and inflammatory tissues.
as §4
as §5, with “enzymes.” for “enzymes. In total, the Diversity PLUS panel contains 148 biomarker readouts that capture biological changes that occur within the physiological context of the particular BioMAP system.”
as §6

Assay [8] relates to BE3C: Bronchial epithelial cells (IL-1β, IFNγ, TNFα). Description: BioMAP BE3C system. In kind it is cell-based, human. The settings on record: at the compound's active concentration.
Text: as §8, §4
as §5, with “enzymes.” for “enzymes. In total, the Diversity PLUS panel contains 148 biomarker readouts that capture biological changes that occur within the physiological context of the particular BioMAP system.”
as §6

Assay [9] concerns 3C system (Th1 vascular biology). In words: BioMAP 3C system. The settings on record: at the compound's active concentration. The class given is cell-based, human.
Text: as §2, with “The Diversity PLUS panel allows test agent characterization in an unbiased way across a broad set of systems modeling various human disease states. These systems are designed to model complex human tissue and disease biology of the vasculature, skin, lung, and inflammatory tissues. […] BioMAP systems are constructed with one or more primary cell types from healthy human donors, with stimuli (such as cytokines or growth factors) added to capture relevant signaling networks that naturally occur in human tissue or pathological conditions. […] Each test” for “Each test”

Assay [10] concerns /Mphg: Macrophages, venular endothelial cells (TLR2 ligand). In words: BioMAP /Mphg system. In kind it is cell-based, human. The note with it: at the compound's active concentration.
Text: as §3, §4, §2, §6

The mark [11] stands for this setting: BT system, at the compound's active concentration.
[12] abbreviates: at the compound's active concentration.

Take `N=C(N)NCCCC(=O)O` [4-guanidinobutanoate]: in assay [1], the “CD38, log10 reduction vs nontreated controls” value was −0.10 log10 and the “T cell proliferation, log10 reduction vs nontreated controls” value was −0.13 log10. Besides, the Active concentrations in [2] was in the range of 6.7 to 20 µM. Besides, in assay [3] (setting [11]), the “Secreted IgG, log10 reduction vs nontreated controls” value is reported as −0.49 log10; the “TNF-alpha (sTNF-alpha), log10 reduction vs nontreated controls” value (shortened to “TNF-alpha (sTNF-alpha), log10 reduction”) is −0.10 log10; the “sIL-17A, log10 reduction vs nontreated controls” value is listed as −0.17 log10. Besides, in [4], the “CXCL10, log10 reduction vs nontreated controls” value was −0.11 log10; the “CXCL11, log10 reduction vs nontreated controls” value is listed as −0.19 log10; the “Collagen III, log10 reduction vs nontreated controls” value was −0.30 log10; the “Fibroblast proliferation, log10 reduction vs nontreated controls” value is on record as −1.09 log10. In [4], the “TIMP-1, log10 reduction vs nontreated controls” value is −0.14 log10 and the “VCAM-1, log10 reduction vs nontreated controls” value is −0.19 log10. In addition, in assay [5], the “MCP-1, log10 reduction vs nontreated controls” value was −0.12 log10.

As for `CC(=O)N[C@H](C(=O)O)[C@@H](C)O` [N-acetylthreonine], the Active concentrations in assay [2] was found to be 20 µM. Moreover, the “Secreted IgG, log10 reduction vs nontreated controls” value in [3] (setting [11]) is on record as −0.41 log10. Also, in assay [5], the “VEGFR2, log10 reduction vs nontreated controls” value is −0.16 log10.

For the compound `C[C@H](CCC(=O)O)[C@H]1CC[C@H]2[C@@H]3[C@H](O)C[C@@H]4C[C@H](O)CC[C@]4(C)[C@H]3C[C@H](O)[C@]12C` [cholate], the “Tissue factor, log10 reduction vs nontreated controls” value (shortened to “Tissue factor, log10 reduction”) in assay [6] (setting [12]) is −0.13 log10. For the same compound, the Active concentrations in assay [2] amounted to 20 µM. The “Thrombomodulin, log10 reduction vs nontreated controls” value (from here on “Thrombomodulin, log10 reduction”) in assay [7] (CASM3C system) is −0.12 log10. Moreover, in assay [8], the “MMP-1, log10 reduction vs nontreated controls” value (from here on “MMP-1, log10 reduction”) is −0.10 log10.

Take `N[C@@H](CCC(=O)N[C@@H](Cc1c[nH]cn1)C(=O)O)C(=O)O` [gamma-glutamylhistidine]: the “Tissue factor, log10 reduction” value in assay [9] is recorded as −0.12 log10. Further, in assay [6] (setting [12]), the “CD40, log10 reduction vs nontreated controls” value was −0.11 log10 and the “E-selectin, log10 reduction vs nontreated controls” value was −0.11 log10. The “IL-8, log10 reduction vs nontreated controls” value (“IL-8, log10 reduction” for short) in assay [10] is reported as −0.15 log10. Further, in assay [2], the Active concentrations came to 20 µM. Further, the “TNF-alpha (sTNF-alpha), log10 reduction” value in [3] (setting [11]) is given as −0.18 log10. The “Thrombomodulin, log10 reduction” value in assay [7] (CASM3C system) is reported as −0.12 log10. Moreover, the “MMP-1, log10 reduction” value in assay [8] is −0.10 log10.

Regarding `O[C@H]1[C@H](O)[C@@H](O)[C@H](O)[C@@H](O)[C@H]1O` [myo-inositol], the Active concentrations in [2] turned out to be 6.7 µM. For the same compound, the “M-CSF, log10 reduction vs nontreated controls” value in assay [7] (CASM3C system) was −0.10 log10. The “MMP-1, log10 reduction” value in assay [8] is −0.12 log10.

Turning to `COc1cc(C(O)C(=O)O)ccc1O` (centres unmarked) [vanillylmandelate (VMA), vanillylmandelate], the “IL-8, log10 reduction” value in [10] is −0.18 log10.

With `O=c1[nH]c(=O)c2ncn([C@@H]3O[C@H](CO)[C@@H](O)[C@H]3O)c2[nH]1` [xanthosine], in assay [6] (setting [12]), the “CD40, log10 reduction vs nontreated controls” value is recorded as −0.12 log10 and the “Tissue factor, log10 reduction” value is recorded as −0.13 log10. Further, in [10], the “IL-8, log10 reduction” value is −0.13 log10. The Active concentrations in assay [2] fell in the range of 6.7 to 20 µM. In addition, the “Tissue factor, log10 reduction” value in assay [7] (CASM3C system (system cell not printed on the line)) is on record as −0.13 log10. The “Thrombomodulin, log10 reduction” value in assay [7] (CASM3C system) is given as −0.11 log10.

As to `O=C(O)c1cc(O)c2cccc(O)c2n1` [xanthurenate], the “Secreted prostaglandin E2 (PGE2), log10 reduction vs nontreated controls” value in [6] (20 μM) is given as −0.09 log10. Also, the “Secreted interleukin 6 (IL-6), log10 reduction vs controls” value in assay [3] (BT system (second system)) is listed as −0.13 log10. Also, the “TNF-alpha (sTNF-alpha), log10 reduction” value in assay [3] (setting [11]) is recorded as −0.19 log10.

These data come from patent US12427179B2, “Compositions and methods for diagnosis and treatment of neurodegenerative diseases” (EPITRACKER, INC., priority 2019, dated 2025).
